Assay results as given in article PMC5584945, “Evaluation of robenidine analog NCL195 as a novel broad-spectrum antibacterial agent” (PLoS ONE, 2017).
Read-outs that look alike come from different tables or passages of the source.

Columns and labels:
Assay in all cases: MIC alone and checkerboard with EDTA or polymyxin B
Type in all cases: cell-based
K. pneumoniae = details: for MIC of EDTA in combination with NCL195: with NCL195 4 μg/ml; for MIC: Klebsiella pneumoniae, read-out: MIC, agent alone
Experimental: (§1) MICs for NCL812 and its analogs (serial two-fold dilutions commencing at 128 μg/ml) were determined (in duplicate) in round bottom 96-well microtitre trays (Sarstedt 82.1582.001), using the broth micro-dilution method recommended by the Clinical and Laboratory Standards Institute (CLSI). […] MIC50, MIC90 and MIC range for NCL812, NCL195 and NCL219 were calculated against each S. pneumoniae, S. aureus or VRE isolate. To assess the potential activity of NCL195 against Gram-negative bacteria, MICs against Acinetobacter spp, E. coli, K. pneumoniae, P. aeruginosa, Proteus spp and Neisseria meningitidis were performed in the presence or absence of 0.08 mM-20 mM EDTA in a standard checkerboard assay.

A. baumannii = details: for MIC: Acinetobacter baumannii, read-out: MIC, agent alone; for MIC of polymyxin B in combination with NCL195: with NCL195 0.5 μg/ml
Experimental: as §1

E. coli = details: for MIC: Escherichia coli, read-out: MIC, agent alone; for MIC of polymyxin B in combination with NCL195: with NCL195 0.25 μg/ml
Experimental: as §1

P. aeruginosa = details: for MIC: Pseudomonas aeruginosa, read-out: MIC, agent alone; for MIC of polymyxin B in combination with NCL195: with NCL195 1 μg/ml
Experimental: as §1

`O=C(O)CN(CCN(CC(=O)O)CC(=O)O)CC(=O)O` [EDTA, Ethylenediaminetetraacetic acid] was tested, and the “MIC of EDTA in combination with NCL195” value (K. pneumoniae; K. pneumoniae ATCC 4352) was 10000 µM, the “MIC of EDTA in combination with NCL195” value (K. pneumoniae; K. pneumoniae ATCC 33495) was 10000 µM and the MIC (K. pneumoniae; ATCC4352, K. pneumoniae ATCC 4352) was > 30000 µM. The MIC (K. pneumoniae; ATCC33495, K. pneumoniae ATCC 33495) was > 30000 µM, the “MIC of EDTA in combination with NCL195” value (A. baumannii; A. baumannii ATCC 12457, with NCL195 4 μg/ml) was 250 µM and the “MIC of EDTA in combination with NCL195” value (A. baumannii; A. baumannii ATCC 19606, with NCL195 2 μg/ml) was 500 µM. The MIC (A. baumannii; ATCC12457, A. baumannii ATCC 12457) was 500 µM, the MIC (A. baumannii; ATCC19606, A. baumannii ATCC 19606) was 1000 µM and the “MIC of EDTA in combination with NCL195” value (E. coli; E. coli ATCC 11229, with NCL195 8 μg/ml) was 625 µM. For the same compound, the “MIC of EDTA in combination with NCL195” value (E. coli; E. coli ATCC 25922, with NCL195 4 μg/ml) was 2500 µM, the MIC (E. coli; ATCC11229, E. coli ATCC 11229) was 2500 µM and the MIC (E. coli; ATCC25922, E. coli ATCC 25922) was 10000 µM. For the same compound, the “MIC of EDTA in combination with NCL195” value (P. aeruginosa; P. aeruginosa ATCC 27853, with NCL195 2 μg/ml) was 5000 µM, the “MIC of EDTA in combination with NCL195” value (P. aeruginosa; P. aeruginosa PA01, with NCL195 0.25 μg/ml) was 1250 µM and the MIC (P. aeruginosa; ATCC27853, P. aeruginosa ATCC 27853) was 10000 µM. For the same compound, the MIC (P. aeruginosa; P. aeruginosa PA01) was 2500 µM.

With Polymyxin B sulfate the “MIC, agent alone” value (K. pneumoniae; K. pneumoniae ATCC 4352) was 0.25 µg/mL, the “MIC of polymyxin B in combination with NCL195” value (from here on “MIC of polymyxin B”) (K. pneumoniae; K. pneumoniae ATCC 4352, with NCL195 0.5 μg/ml) was 0.125 µg/mL and the “MIC, agent alone” value (K. pneumoniae; K. pneumoniae ATCC 33495) was 0.25 µg/mL. For the same compound, the “MIC of polymyxin B” value (K. pneumoniae; K. pneumoniae ATCC 33495, with NCL195 0.25 μg/ml) was 0.125 µg/mL, the “MIC, agent alone” value (A. baumannii; A. baumannii ATCC 12457) was 0.5 µg/mL and the “MIC of polymyxin B” value (A. baumannii; A. baumannii ATCC 12457) was 0.125 µg/mL. For the same compound, the “MIC, agent alone” value (A. baumannii; A. baumannii ATCC 19606) was 0.5 µg/mL, the “MIC of polymyxin B” value (A. baumannii; A. baumannii ATCC 19606) was 0.125 µg/mL and the “MIC, agent alone” value (E. coli; E. coli ATCC 11229) was 0.25 µg/mL. For the same compound, the “MIC of polymyxin B” value (E. coli; E. coli ATCC 11229) was 0.125 µg/mL, the “MIC, agent alone” value (E. coli; E. coli ATCC 25922) was 0.25 µg/mL and the “MIC of polymyxin B” value (E. coli; E. coli ATCC 25922) was 0.125 µg/mL. For the same compound, the “MIC, agent alone” value (P. aeruginosa; P. aeruginosa ATCC 27853) was 0.5 µg/mL, the “MIC of polymyxin B” value (P. aeruginosa; P. aeruginosa ATCC 27853) was 0.125 µg/mL and the “MIC, agent alone” value (P. aeruginosa; P. aeruginosa PA01) was 0.5 µg/mL. The “MIC of polymyxin B” value (P. aeruginosa; P. aeruginosa PA01) was 0.125 µg/mL.
